Laboratory results: patent publication US20250381243A1, “HETEROCYCLES AND USES THEREOF” (Kumquat Biosciences Inc., priority 2022, published 2025)

System: A549 cells
Assay: Cell proliferation assay (CellTiter-Glo), cells with K-Ras G12S mutation
Assay type: cell-based
Conditions: Homo sapiens, ≤500 nM, read-out: Inhibition of A549 Cells (IC50)
Description: A549 (ATCC CRL-185) and LS123 (ATCC CRL-255) cell lines comprise a G12S mutation and can be used to assess Ras cellular signaling in vitro, e.g., in response to treatment with a compound described herein. A549 culture medium is prepared with RPMI-1640 and 10% heat-inactivated FBS. LS123 culture medium is prepared with RPMI-1640 and 10% heat-inactivated FBS. A CellTiter-Glo (CTG) luminescent based assay (Promega) is used to assess growth of the cells, as a measurement of the ability of the compounds herein to inhibit Ras signaling in the cells. The cells (e.g., 800 per well) are seeded in their respective culture medium in standard tissue culture-treated 384-well format plates (Falcon #08-772-116) or ultra-low attachment surface 384-well format plates (S-Bio #MS-9384WZ). The day after plating, cells are treated with a dilution series (e.g., a 10 point 3-fold dilution series) of the compounds herein (e.g., approximately 40 μl final volume per well). Cell viability can be monitored (e.g., approximately 6 days later) according to the manufacturer's recommended instructions, where CellTiter-Glo reagent is added (e.g., approximately 10 μl), vigorously mixed, covered, and placed on a plate shaker (e.g., approximately for 20 min) to ensure sufficient cell lysis prior to assessment of luminescent signal. The IC50 values are determined using the four parameter fit. The resulting IC50 value is a measurement of the ability of the test compound to reduce cell growth of Ras-driven cells (e.g., tumor cell lines) in vitro and/or in vivo.

Row | IC50 | Compound
1 | ≤ 500 nM | CCN(C(=O)n1cnc(F)n1)[C@@H]1CCN(c2nc(OC[C@@]34CCCN3C[C@H](F)C4)nc3c(F)c(-c4ccc(F)c5sc(N)c(C#N)c45)c(Cl)cc23)[C@@H]1C [Compound 115, N-((2R,3R)-1-(7-(2-amino-3-cyano-7-fluorobenzo[b]thiophen-4-yl)-6-chloro-8-fluoro-2-(((2R,7aS)-2-fluorotetrahydro-1H-pyrrolizin-7a(5H)-yl)methoxy)quinazolin-4-yl)-2-methylpyrrolidin-3-yl)-N-ethyl-3-fluoro-1H-1,2,4-triazole-1-carboxamide]
2 | ≤ 500 nM | CC(C)C1N(C(=O)n2cncn2)CC12CCCN(c1nc(OC[C@@]34CCCN3C[C@H](F)C4)nc3c(F)c(-c4ccc(F)c5sc(N)c(C#N)c45)c(Cl)cc13)C2 (stereo partly drawn) [Compound 116, 2-amino-4-(6-chloro-8-fluoro-2-(((2R,7aS)-2-fluorotetrahydro-1H-pyrrolizin-7a(5H)-yl)methoxy)-4-(1-isopropyl-2-(1H-1,2,4-triazole-1-carbonyl)-2,6-diazaspiro[3.5]nonan-6-yl)quinazolin-7-yl)-7-fluorobenzo[b]thiophene-3-carbonitrile]
3 | ≤ 500 nM | N#Cc1c(N)sc2c(F)ccc(-c3c(Cl)cc4c(N5CCC[C@@]6(C5)CN(C(=O)n5cnc(Cl)n5)[C@@H]6C5CCC5)nc(OC[C@@]56CCCN5C[C@H](F)C6)nc4c3F)c12 [Compound 133, 2-amino-4-(6-chloro-4-((1R,4R)-2-(3-chloro-1H-1,2,4-triazole-1-carbonyl)-1-cyclobutyl-2,6-diazaspiro[3.5]nonan-6-yl)-8-fluoro-2-(((2R,7aS)-2-fluorotetrahydro-1H-pyrrolizin-7a(5H)-yl)methoxy)quinazolin-7-yl)-7-fluorobenzo[b]thiophene-3-carbonitrile]
4 | ≤ 500 nM | CN(C[C@@H]1CN(C(=O)n2cnc(C(F)F)n2)[C@@H]1C(C)(C)C)c1nc(OC[C@@]23CCCN2C[C@H](F)C3)nc2c(F)c(-c3ccc(F)c4sc(N)c(C#N)c34)c(Cl)cc12 [Compound 228, 2-amino-4-(4-((((2S,3R)-2-(tert-butyl)-1-(3-(difluoromethyl)-1H-1,2,4-triazole-1-carbonyl)azetidin-3-yl)methyl)(methyl)amino)-6-chloro-8-fluoro-2-(((2R,7aS)-2-fluorotetrahydro-1H-pyrrolizin-7a(5H)-yl)methoxy)quinazolin-7-yl)-7-fluorobenzo[b]thiophene-3-carbonitrile]
5 | ≤ 500 nM | CC(C)C1N(C(=O)n2cnc(Cl)n2)CC12CC(CC#N)CN(c1nc(OC[C@@]34CCCN3C[C@H](F)C4)nc3c(F)c(-c4ccc(F)c5sc(N)c(C#N)c45)c(Cl)cc13)C2 (single isomer, unassigned) [Compound 117]
6 | ≤ 500 nM | CC(C)[C@H]1N(C(=O)n2cnc(F)n2)C[C@@]12CN(c1nc(OC[C@@]34CCCN3C[C@H](F)C4)nc3c(F)c(-c4ccc(F)c5sc(N)c(C#N)c45)c(Cl)cc13)CCO2 [Compound 204, 2-amino-4-(6-chloro-8-fluoro-4-((1R,4S)-2-(3-fluoro-1H-1,2,4-triazole-1-carbonyl)-1-isopropyl-5-oxa-2,8-diazaspiro[3.5]nonan-8-yl)-2-(((2R,7aS)-2-fluorotetrahydro-1H-pyrrolizin-7a(5H)-yl)methoxy)quinazolin-7-yl)-7-fluorobenzo[b]thiophene-3-carbonitrile]
7 | ≤ 500 nM | C=CCN(C[C@@H]1CN(C(=O)n2cnc(F)n2)[C@@H]1C1(C)CC1)c1nc(OC[C@@]23CCCN2C[C@H](F)C3)nc2c(F)c(-c3ccc(F)c4sc(N)c(C#N)c34)c(Cl)cc12 [Compound 136, 4-(4-(allyl(((2S,3R)-1-(3-fluoro-1H-1,2,4-triazole-1-carbonyl)-2-(1-methylcyclopropyl)azetidin-3-yl)methyl)amino)-6-chloro-8-fluoro-2-(((2R,7aS)-2-fluorotetrahydro-1H-pyrrolizin-7a(5H)-yl)methoxy)quinazolin-7-yl)-2-amino-7-fluorobenzo[b]thiophene-3-carbonitrile]
8 | ≤ 500 nM | C[C@H]1CC[C@]2(CN(C(=O)n3cnc(F)n3)[C@@H]2C2(C)CC2)CN1c1nc(OC[C@@]23CCCN2C[C@H](F)C3)nc2c(F)c(-c3ccc(F)c4sc(N)c(C#N)c34)c(Cl)cc12 [Compound 185, 2-amino-4-(6-chloro-8-fluoro-4-((1R,4R,7S)-2-(3-fluoro-1H-1,2,4-triazole-1-carbonyl)-7-methyl-1-(1-methylcyclopropyl)-2,6-diazaspiro[3.5]nonan-6-yl)-2-(((2R,7aS)-2-fluorotetrahydro-1H-pyrrolizin-7a(5H)-yl)methoxy)quinazolin-7-yl)-7-fluorobenzo[b]thiophene-3-carbonitrile]
9 | ≤ 500 nM | C[C@H]1CC[C@]2(CN(C(=O)n3cnc(C(F)F)n3)[C@@H]2C2(C)CC2)CN1c1nc(OC[C@@]23CCCN2C[C@H](F)C3)nc2c(F)c(-c3ccc(F)c4sc(N)c(C#N)c34)c(Cl)cc12 (atropisomer, axis not shown; (aS)) [Compound 178, (R)-2-amino-4-(6-chloro-4-((1R,4R,7S)-2-(3-(difluoromethyl)-1H-1,2,4-triazole-1-carbonyl)-7-methyl-1-(1-methylcyclopropyl)-2,6-diazaspiro[3.5]nonan-6-yl)-8-fluoro-2-(((2R,7aS)-2-fluorotetrahydro-1H-pyrrolizin-7a (5H)-yl)methoxy)quinazolin-7-yl)-7-fluorobenzo[b]thiophene-3-carbonitrile]
10 | ≤ 500 nM | C[C@H]1CC[C@]2(CN(C(=O)n3cnc(C(F)F)n3)[C@@H]2C2CCC2)CN1c1nc(OC[C@@]23CCCN2C[C@H](F)C3)nc2c(F)c(-c3ccc(F)c4sc(N)c(C#N)c34)c(Cl)cc12 [Compound 229, 2-amino-4-(6-chloro-4-((1R,4R,7S)-1-cyclobutyl-2-(3-(difluoromethyl)-1H-1,2,4-triazole-1-carbonyl)-7-methyl-2,6-diazaspiro[3.5]nonan-6-yl)-8-fluoro-2-(((2R,7aS)-2-fluorotetrahydro-1H-pyrrolizin-7a(5H)-yl)methoxy)quinazolin-7-yl)-7-fluorobenzo[b]thiophene-3-carbonitrile]
11 | ≤ 500 nM | CC(C)[C@H]1N(C(=O)n2cnc(Cl)n2)C[C@]12CCCCN(c1nc(OC[C@@]34CCCN3C[C@H](F)C4)nc3c(F)c(-c4ccc(F)c5sc(N)c(C#N)c45)c(Cl)cc13)C2 [Compound 142, 2-amino-4-(6-chloro-4-((1R,4R)-2-(3-chloro-1H-1,2,4-triazole-1-carbonyl)-1-isopropyl-2,6-diazaspiro[3.6]decan-6-yl)-8-fluoro-2-(((2R,7aS)-2-fluorotetrahydro-1H-pyrrolizin-7a(5H)-yl)methoxy)quinazolin-7-yl)-7-fluorobenzo[b]thiophene-3-carbonitrile]
12 | ≤ 500 nM | CC1([C@H]2N(C(=O)n3cnc(Cl)n3)C[C@]23CCCN(c2nc(OC[C@@]45CCCN4C[C@H](F)C5)nc4c(F)c(-c5ccc(F)c6sc(N)c(C#N)c56)c(Cl)cc24)C3)CC1 [Compound 179, 2-amino-4-(6-chloro-4-((1R,4R)-2-(3-chloro-1H-1,2,4-triazole-1-carbonyl)-1-(1-methylcyclopropyl)-2,6-diazaspiro[3.5]nonan-6-yl)-8-fluoro-2-(((2R,7aS)-2-fluorotetrahydro-1H-pyrrolizin-7a(5H)-yl)methoxy)quinazolin-7-yl)-7-fluorobenzo[b]thiophene-3-carbonitrile]
13 | ≤ 500 nM | CC(C)[C@H]1N(C(=O)n2cnc(F)n2)C[C@]12CCCN(c1nc(OC[C@@]34CCCN3C[C@H](F)C4)nc3c(F)c(-c4ccc(F)c5sc(N)c(C#N)c45)c(Cl)cc13)C2 [Compound 184, 2-amino-4-(6-chloro-8-fluoro-4-((1R,4R)-2-(3-fluoro-1H-1,2,4-triazole-1-carbonyl)-1-isopropyl-2,6-diazaspiro[3.5]nonan-6-yl)-2-(((2R,7aS)-2-fluorotetrahydro-1H-pyrrolizin-7a(5H)-yl)methoxy)quinazolin-7-yl)-7-fluorobenzo[b]thiophene-3-carbonitrile]
14 | ≤ 500 nM | CC1CN(c2nc(OC[C@@]34CCCN3C[C@H](F)C4)nc3c(F)c(-c4ccc(F)c5sc(N)c(C#N)c45)c(Cl)cc23)CC1N(C)C(=O)n1cncn1 (stereo partly drawn) [Compound 206, N-(1-(7-(2-amino-3-cyano-7-fluorobenzo[b]thiophen-4-yl)-6-chloro-8-fluoro-2-(((2R,7aS)-2-fluorotetrahydro-1H-pyrrolizin-7a(5H)-yl)methoxy)quinazolin-4-yl)-4-methylpyrrolidin-3-yl)-N-methyl-1H-1,2,4 triazole-1-carboxamide]
15 | ≤ 500 nM | CC(C)[C@H]1N(C(=O)n2cncn2)C[C@@]12CN(c1nc(OC[C@@]34CCCN3C[C@H](F)C4)nc3c(F)c(-c4ccc(F)c5sc(N)c(C#N)c45)c(Cl)cc13)CCO2 [Compound 104, 2-amino-4-(6-chloro-8-fluoro-2-(((2R,7aS)-2-fluorotetrahydro-1H-pyrrolizin-7a(5H)-yl)methoxy)-4-((1R,4S)-1-isopropyl-2-(1H-1,2,4-triazole-1-carbonyl)-5-oxa-2,8-diazaspiro[3.5]nonan-8-yl)quinazolin-7-yl)-7-fluorobenzo[b]thiophene-3-carbonitrile]
